Assay results published in US20170065566A1, “PHARMACEUTICAL COMBINATIONS COMPRISING ANTIBACTERIAL AGENTS” (WOCKHARDT LIMITED, priority 2014, published 2017).
Counter-ions that a name gives are not always drawn.

System: E. coli 7MP strain producing CMY type, SHV, TEM beta-lactamase enzymes
Experiment: Time kill study (viable bacterial count)
Assay type: cell-based
Conditions: for Effect on bacterial count of E. coli throughout the duration of the study (in words): alone or in combination; for Bacterial count (Log10 CFU/ml) 0 hour / Bacterial count (Log10 CFU/ml) 2 hour / Bacterial count (Log10 CFU/ml) 4 hour / Bacterial count (Log10 CFU/ml) 6 hour / Bacterial count (Log10 CFU/ml) 8 hour: time kill
Protocol: The synergistic killing effect of the combinations according to invention was studied by performing time kill studies. In a typical time kill study, the freshly grown cultures were diluted to the required cell density (initial starting inoculum) in Cation adjusted Muller Hinton broth medium (BD, USA). The antibacterial agents (either alone or in combination) at the required concentrations were added into the culture-containing medium. The samples were incubated under shaking condition (120 rpm) at 37° C. Enumeration of viable bacterial count was done every 2 hour by diluting in normal saline and plating on to the Tryptic Soya Agar plates (BD, USA). The plates were incubated for 24 hours to arrive at the viable bacterial count. […] In general, the decrease of 1 Log CFU/ml, corresponds to 90% killing of bacteria. Similarly, 2 Log CFU/ml reductions indicates to 99% killing of bacteria and 3 Log CFU/ml reductions is equal to 99.9% killing of bacteria.
The assay without any antibacterial agent was taken as control.

[1] = each active ingredient at 4 mcg/ml

SMILES | Effect on bacterial count of E. coli throughout the duration of the study (in words) [1] | Bacterial count (Log10 CFU/ml) 0 hour [1] [Log10 CFU/ml] | Bacterial count (Log10 CFU/ml) 2 hour [1] [Log10 CFU/ml] | Bacterial count (Log10 CFU/ml) 4 hour [1] [Log10 CFU/ml] | Bacterial count (Log10 CFU/ml) 6 hour [1] [Log10 CFU/ml] | Bacterial count (Log10 CFU/ml) 8 hour [1] [Log10 CFU/ml] | Bacterial count (Log10 CFU/ml) 0 hour (2 mcg/ml) [Log10 CFU/ml] | Bacterial count (Log10 CFU/ml) 2 hour (2 mcg/ml) [Log10 CFU/ml] | Bacterial count (Log10 CFU/ml) 4 hour (2 mcg/ml) [Log10 CFU/ml] | Bacterial count (Log10 CFU/ml) 6 hour (2 mcg/ml) [Log10 CFU/ml] | Bacterial count (Log10 CFU/ml) 8 hour (2 mcg/ml) [Log10 CFU/ml]
CO/N=C(\C(=O)N[C@@H]1C(=O)N2C(C(=O)[O-])=C(C[n+]3cccc4c3CCC4)CS[C@H]12)c1csc(N)n1 [Cefpirome, cefpirome] | not effective in decreasing the bacterial count | 7.51 | 8.87 | 9.27 | 9.20 | 9.25 | – | – | – | – | –
C[C@@H](O)[C@H]1C(=O)N2C(C(=O)O)=C(SCCN=CN)C[C@H]12 [Imipenem, imipenem] | – | – | – | – | – | – | 7.51 | 3.95 | 3.60 | 4.81 | 5.90
CO/N=C(\C(=O)N[C@@H]1C(=O)N2C(C(=O)[O-])=C(C[N+]3(C)CCCC3)CS[C@H]12)c1csc(N)n1 [Cefepime, cefepime] | not effective in decreasing the bacterial count | 7.51 | 8.47 | 9.19 | 9.20 | 9.30 | – | – | – | – | –
N#C[C@@H]1CC[C@@H]2CN1C(=O)N2OS(=O)(=O)O [Sodium salt of a compound of Formula (I), sodium salt of sulphuric acid, mono[(1R,2S,5R)-2-cyano-7-oxo-1,6-diazabicyclo[3.2.1]oct-6-yl] ester] | not effective in decreasing the bacterial count | 7.51 | 8.87 | 9.36 | 9.20 | 9.20 | – | – | – | – | –
